Data published in ChEMBL document CHEMBL1147370, “Selligueain A, a novel highly sweet proanthocyanidin from the rhizomes of Selliguea feei” (J Nat Prod, 1993).

How the values were obtained:
Mus musculus [1] = assay: Acute toxicity in Swiss-Webster mouse at 2 g/kg, po; format: organism-based; conditions: in vivo, 2000 mg/kg
Mus musculus [2] = assay: Acute toxicity in Swiss-Webster mouse at 1 g/kg, po; format: organism-based; conditions: in vivo, 1000 mg/kg

Compound: Oc1ccc([C@H]2Oc3c(c(O)cc4c3[C@H]3c5c(O)cc(O)cc5O[C@@](c5ccc(O)cc5)(O4)[C@@H]3O)[C@H](c3c(O)cc(O)c4c3O[C@H](c3ccc(O)cc3)[C@@H](O)C4)[C@H]2O)cc1 [SELLIGUEAIN A]
- Activity (Mus musculus [1]): Non-toxic
- Activity (Mus musculus [2]): Non-toxic
